Test results from ChEMBL document CHEMBL1201862, “PubChem BioAssay data set” (2004).
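A five-concentration, 48-hour dose response in 96-well plates underlies each endpoint, interpolated linearly between surrounding concentrations. GI50 = concentration required for 50% inhibition of growth.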 Calls of active or inactive are those of the source. No stated cut-off is given here; in the data, active = GI50 up to about 1.1 µM and inactive = higher.

Legend:
Assay in all cases: NCI-60 cell line screen, 48 h
[1] = tested on: HCT-116
[2] = tested on: HOP-92
[3] = tested on: HT-29
[4] = tested on: Hs-578T
[5] = tested on: IGROV-1
[6] = tested on: K562
[7] = tested on: MCF7
[8] = tested on: Malme-3M
[9] = tested on: OVCAR-3
[10] = tested on: OVCAR-4
[11] = tested on: SF-268
[12] = tested on: SF-295
[13] = tested on: SF-539
[14] = tested on: SK-MEL-2
[15] = tested on: TK-10
[16] = tested on: UO-31
[17] = tested on: SK-MEL-28
[18] = tested on: SNB-75
[19] = tested on: HL-60

Measured: GI50

O=C1C(=CNc2ccccc2Cl)C(=O)N(c2ccccc2)C(=O)N1c1ccccc1
inactive: [1] > 100 µM | [2] > 100 µM | [3] > 100 µM | [4] 80.4 µM | [5] > 100 µM | [6] > 100 µM | [7] > 100 µM | [8] > 100 µM | [9] > 100 µM | [10] > 100 µM | [11] > 100 µM | [12] > 100 µM | [13] > 100 µM | [14] 27.9 µM | [15] > 100 µM | [16] > 100 µM

C/C=C\C(CC(=O)NCCC1CN(S(=O)(=O)c2ccc(C)cc2)c2ccccc21)CC(=O)OC (configuration not stated)
inactive: [1] > 100 µM | [2] > 100 µM | [3] > 100 µM | [4] > 100 µM | [5] > 100 µM | [6] > 100 µM | [7] > 100 µM | [8] > 100 µM | [9] > 100 µM | [10] > 100 µM | [11] > 100 µM | [12] > 100 µM | [17] > 100 µM | [14] > 100 µM | [18] > 100 µM | [15] > 100 µM | [16] > 100 µM

Nc1ncnc2c1ncn2[C@H]1CC[C@@H](NO)C1
inactive: [1] > 100 µM | [2] > 100 µM | [4] > 100 µM | [5] > 100 µM | [6] > 100 µM | [7] > 100 µM | [8] > 100 µM | [9] > 100 µM | [10] > 100 µM | [11] > 100 µM | [12] > 100 µM | [13] > 100 µM | [17] > 100 µM | [14] > 100 µM | [18] > 100 µM | [15] > 100 µM | [16] > 100 µM

Cc1ccc(OCCn2cc(Nc3ccccc3)c(=O)n(CCOc3ccc(C)cc3)c2=O)cc1
inactive: [1] > 100 µM | [2] 44.5 µM | [3] 51.1 µM | [4] 67.6 µM | [5] 50.8 µM | [6] 70.5 µM | [7] > 100 µM | [8] 80 µM | [9] > 100 µM | [10] 49.9 µM | [11] 35.6 µM | [12] 50.2 µM | [13] > 100 µM | [17] > 100 µM | [14] > 100 µM | [18] > 100 µM | [15] 48.4 µM | [16] > 100 µM

COc1cccc(CSCC(=O)O)c1
inactive: [1] > 100 µM | [2] > 100 µM | [3] > 100 µM | [4] > 100 µM | [5] > 100 µM | [6] > 100 µM | [7] > 100 µM | [8] > 100 µM | [9] > 100 µM | [10] > 100 µM | [11] > 100 µM | [12] > 100 µM | [13] > 100 µM | [17] > 100 µM | [14] > 100 µM | [18] > 100 µM | [15] > 100 µM | [16] > 100 µM

CC(=O)Nc1ccc(NC(=O)CC(=O)Nc2ccc(NC(C)=O)cc2)cc1
inactive: [1] > 100 µM | [19] > 100 µM | [2] > 100 µM | [3] > 100 µM | [4] > 100 µM | [5] > 100 µM | [6] > 100 µM | [7] > 100 µM | [8] > 100 µM | [9] > 100 µM | [10] > 100 µM | [11] > 100 µM | [12] > 100 µM | [13] > 100 µM | [17] > 100 µM | [15] > 100 µM | [16] > 100 µM

Cc1nc2c(sc3nc4ccccc4n32)c(=O)[nH]1
inactive: [1] > 100 µM | [2] > 100 µM | [4] > 100 µM | [5] > 100 µM | [7] > 100 µM | [8] > 100 µM | [9] > 100 µM | [10] > 100 µM | [11] > 100 µM | [12] > 100 µM | [13] > 100 µM | [17] > 100 µM | [14] > 100 µM | [18] > 100 µM | [15] > 100 µM | [16] > 100 µM

Cc1ccc(Nc2[nH]c(=O)[nH]c(=O)c2C)cc1Cl
inactive: [1] > 100 µM | [2] 76 µM | [3] > 100 µM | [4] 70 µM | [5] 78.5 µM | [6] > 100 µM | [7] 19.5 µM | [8] > 100 µM | [9] 62.1 µM | [10] > 100 µM | [11] 87.7 µM | [12] 26.2 µM | [13] > 100 µM | [17] > 100 µM | [14] > 100 µM | [18] 29.8 µM | [15] 91.8 µM | [16] 30.4 µM

O=[N+]([O-])c1cccnc1NCC1(CO)CCCC1
inactive: [1] 26 µM | [19] 22.4 µM | [2] 23.4 µM | [3] 19.3 µM | [4] 24.5 µM | [5] 18.3 µM | [6] 18.5 µM | [7] 42.7 µM | [8] 20.7 µM | [9] 19.8 µM | [10] 36.5 µM | [11] 32.2 µM | [12] 23.8 µM | [13] 21.6 µM | [17] 23.2 µM | [18] 15.9 µM | [15] 27.2 µM

CC(Cc1ccc(O)cc1)NCC(O)c1ccc(O)c(O)c1 (configuration not stated)
inactive: [1] > 100 µM | [2] > 100 µM | [3] > 100 µM | [4] > 100 µM | [5] > 100 µM | [6] > 100 µM | [7] > 100 µM | [8] > 100 µM | [9] 81.7 µM | [10] > 100 µM | [11] > 100 µM | [12] > 100 µM | [13] > 100 µM | [17] > 100 µM | [14] > 100 µM | [18] > 100 µM | [15] > 100 µM | [16] > 100 µM

CC1=N[C@](C)(C2CC3C=CC2C3=O)COC1=O (some centres not stated)
inactive: [1] > 100 µM | [19] > 100 µM | [2] > 100 µM | [3] > 100 µM | [4] > 100 µM | [5] > 100 µM | [6] > 100 µM | [7] > 100 µM | [8] > 100 µM | [9] > 100 µM | [10] > 100 µM | [11] > 100 µM | [12] > 100 µM | [13] > 100 µM | [17] > 100 µM | [18] > 100 µM | [15] > 100 µM | [16] > 100 µM

O=c1ssc2ncccc12
inactive: [1] 15.2 µM | [19] 42.4 µM | [2] > 100 µM | [3] 23.6 µM | [4] 46.3 µM | [6] 9.66 µM | [7] 13.8 µM | [8] 19.8 µM | [9] 18.4 µM | [11] 22.1 µM | [12] 33.5 µM | [13] 30.3 µM | [17] 24.8 µM | [14] 10.4 µM | [18] 14.4 µM | [15] 35.5 µM | [16] 16.4 µM
